Test system: subcutaneous adipocytes
Assay: lipid assay (AdipoRed staining of total lipid)
Assay type: cell-based
Details: active substance combined with 10 ng/ml N-(4-amino-2-methylquinolin-6-yl)-2-((4-ethylphenoxy)methyl)benzamide; adipocytes, one week, AdipoRed; assay named in cell = better activity
Description: The lipid assay is performed on subcutaneous adipocytes. Cell culture dishes are inoculated with preadipocytes, which undergo differentiation into adipocytes. This is followed by treatment with the active substance for one week, during which the cells synthesize lipids and store them in vesicles. The total amount of lipid as a function of active substance effects is determined at the end of the culture period. This is done by staining the cell monolayer with the lipophilic fluorescent dye AdipoRed, followed by quantification by fluorescence spectroscopy.

Row | Compound | Assay in which the combination showed better activity than the corresponding active substance alone: Lipid
1 | CCCCC(O)CO (stereo not drawn) [1,2-Hexanediol/Hydiol 6, 1,2-Hexanediol] | Lipid
2 | OCc1ccccc1 [Benzyl alcohol] | Lipid
3 | OCCCCO [Butylene glycol/Natan, Butylene glycol] | Lipid
4 | CC1(C)C(=O)N(CO)C(=O)N1CO [Kondant/DMDM hydantoin, DMDM hydantoin] | Lipid
5 | Cn1sccc1=O [Methylisothiazolinone/Konlon 950, Methylisothiazolinone] | Lipid
6 | CC(CO)CO [Methylpropanediol/Lolo, Methylpropanediol] | Lipid
7 | Cc1cc(CC(C)CC(C)(C)C)n(O)c(=O)c1.NCCO (stereo not drawn) [Piroctone olamine/Octupus, Piroctone olamine] | Lipid
8 | O=C([O-])c1ccccc1.[Na+] [Sodium benzoate] | Lipid
9 | O=C([O-])c1ccccc1O.[Na+] [Sodium salicylate] | Lipid
10 | Phenoxyethanol [Phenoxyethanol/Phenoxetol] | Lipid

Same assay, conditions: in combination with a preservative versus the corresponding preservative alone; one week treatment; FIG. 2

Row | Compound | accumulation of AdipoRed (differentiation performance of the adipocytes)
11 | CCc1ccc(OCc2ccccc2C(=O)Nc2ccc3nc(C)cc(N)c3c2)cc1 [N-(4-Amino-2-methylquinolin-6-yl)-2-((4-ethylphenoxy)methyl)benzamide] | increase

Test system: human adipocytes
Assay: LDH (lactate dehydrogenase) cytotoxicity assay
Details: active substance combined with 10 ng/ml N-(4-amino-2-methylquinolin-6-yl)-2-((4-ethylphenoxy)methyl)benzamide; LDH in medium supernatant; assay named in cell = better activity (less LDH escape)
Description: The third assay performed is the LDH (lactate dehydrogenase) cytotoxicity assay. In this assay, the metabolic enzyme LDH is detected in the medium supernatant of the cell monolayer by adding a substrate for the enzyme to the cell culture supernatant. Reaction of the latter produces a color change, which is determined photometrically. The magnitude of the color change correlates here with the amount of LDH in the cell culture supernatant.
For all assays, the active substances were present as 1000× stocks dissolved to 10 mM in DMSO and were diluted 1:1000 in the appropriate cell culture medium for use.

Row | Compound | Assay in which the combination showed better activity than the corresponding active substance alone: LDH
12 | CCCCC(O)CO (stereo not drawn) [1,2-Hexanediol/Hydiol 6, 1,2-Hexanediol] | LDH
13 | CCOC(=O)c1ccc(O)cc1 [Ethylparaben/Konpar A, Ethylparaben] | LDH
14 | O=C([O-])c1ccccc1.[Na+] [Sodium benzoate] | LDH
15 | CCCCCCC(O)CO (stereo not drawn) [octane-1,2-diol] | LDH

Same assay, conditions: in combination with a preservative versus the corresponding preservative alone; human adipocytes; FIG. 3

Row | Compound | rate of escape of LDH
16 | CCc1ccc(OCc2ccccc2C(=O)Nc2ccc3nc(C)cc(N)c3c2)cc1 [N-(4-Amino-2-methylquinolin-6-yl)-2-((4-ethylphenoxy)methyl)benzamide] | decrease

Test system: dermal fibroblasts
Assay: viability assay (BrdU incorporation, cell division rate)
Assay type: cell-based
Details: active substance combined with 10 ng/ml N-(4-amino-2-methylquinolin-6-yl)-2-((4-ethylphenoxy)methyl)benzamide, 24 h, assay named in cell = better activity
Description: The cells take up this synthetic nucleic acid, which is detectable by fluorescence detection, and incorporate it into newly synthesized genetic material during cell division. […] This allows conclusions to be drawn about the effect of the individual active substances on cell viability.

Row | Compound | Assay in which the combination showed better activity than the corresponding active substance alone: BrdU
17 | OCCCCO [Butylene glycol/Natan, Butylene glycol] | BrdU
18 | CCOC(=O)c1ccc(O)cc1 [Ethylparaben/Konpar A, Ethylparaben] | BrdU
19 | CCCCCCCC(=O)OCC(O)CO (stereo not drawn) [Glyceryl caprylate/emulsifier CY, Glyceryl caprylate] | BrdU
20 | CC1(C)C(=O)N(CO)C(=O)N1CO [Kondant/DMDM hydantoin, DMDM hydantoin] | BrdU
21 | Cn1sccc1=O [Methylisothiazolinone/Konlon 950, Methylisothiazolinone] | BrdU
22 | Cc1cc(CC(C)CC(C)(C)C)n(O)c(=O)c1.NCCO (stereo not drawn) [Piroctone olamine/Octupus, Piroctone olamine] | BrdU
23 | CCCCCCC(O)CO (stereo not drawn) [octane-1,2-diol] | BrdU

Same assay, conditions: in combination with a preservative versus the corresponding preservative alone, 24 h, FIG. 1

Row | Compound | rate of incorporation of BrdU
24 | CCc1ccc(OCc2ccccc2C(=O)Nc2ccc3nc(C)cc(N)c3c2)cc1 [N-(4-Amino-2-methylquinolin-6-yl)-2-((4-ethylphenoxy)methyl)benzamide] | increase
